Assay results published in paper PMC11891579, “Fluorescent PyrAte-(S)-citalopram conjugates enable imaging of the serotonin transporter in living tissue” (Chemical Science, 2025).

Legend:
SERT [1] = target: T1, SERT (Homo sapiens, UniProt P31645); test: radioligand binding assay, [3H]-imipramine competition in SERT-containing membrane fractions; details: 3 nM [3H]-imipramine; membranes of HEK293 YhSERT; mean ± SD of three experiments; Cheng-Prusoff; read-out: Ki, competitive binding with imipramine
T1 construct: expressed in transfected cells
Protocol: (§1) ten minutes (for [3H]MPP+), by exchange of the substrate-containing buffer with 0.2 mL ice-cold KHB.
The KHB was aspirated immediately. Cells were lysed and prepared for [3H] content analysis by adding 0.2 mL Ultima Gold™ XR liquid scintillation cocktail. […]
microplate liquid scintillation counter. Non-specific uptake was determined in the presence of 30 µM paroxetine (for YhSERT), 50 µM GBR12909 (for YhDAT and hNET), or 100 µM decynium-22 (for YhOCT3).
For radioligand binding assays, membranes were first prepared from HEK293 cells stably expressing YhSERT. Cells were harvested from dishes using a plastic scraper and ice-cold PBS. Cells were recovered as a pellet after centrifugation (400× g) for 10 min at 4°C, and then re-suspended in HME buffer. The cell suspension was frozen rapidly by immersing in liquid N2, and then immediately thawed and sonicated for three 12 pulses/min cycles. Membrane fractions were collected after centrifugation at 40000× g for 15 minutes, and then re-suspended in HME buffer. Protein concentration was determined using Coomassie Brilliant Blue kit (BioRad Laboratories, California, USA). The binding reactions were carried out in a final volume of 0.25 mL B2 buffer containing 15 µg membranes, 3 nM

SERT [2] = target: T1, SERT; test: whole-cell patch clamp of 5-HT-mediated currents in SERT-expressing HEK293 cells; format: cell-based
Protocol: as §1
The KHB was aspirated immediately. Cells were lysed and prepared for [3H] content analysis by adding 0.2 mL Ultima Gold™ XR liquid scintillation cocktail. Measurements were performed in a 1450 MicroBeta microplate liquid scintillation counter. Non-specific uptake was determined in the presence of 30 µM paroxetine (for YhSERT), 50 µM GBR12909 (for YhDAT and hNET), or 100 µM decynium-22 (for YhOCT3).
For radioligand binding assays, membranes were first prepared from HEK293 cells stably expressing YhSERT. Cells were harvested from dishes using a plastic scraper and ice-cold PBS. Cells were recovered as a pellet after centrifugation (400× g) for 10 min at 4°C, and then re-suspended in HME buffer. […] Protein concentration was determined using Coomassie Brilliant Blue kit (BioRad Laboratories, California, USA). […] The amount of radioactivity in the filters was measured using a Tri-Carb 2800TR liquid scintillation analyzer (PerkinElmer). The Ki was calculated from the measured IC50 using the Cheng-Prusoff equation.
Prior to imaging, cell culture medium was replaced with pre-warmed KHB. […] PyrAtes were excited using a 405 nm laser, and its fluorescent signals collected using 525/50 nm emission filters; mCherry was excited using a 561 nm laser, and fluorescence was collected using 595/50 nm emission filters. […]

T1 sequence (P31645 whole entry): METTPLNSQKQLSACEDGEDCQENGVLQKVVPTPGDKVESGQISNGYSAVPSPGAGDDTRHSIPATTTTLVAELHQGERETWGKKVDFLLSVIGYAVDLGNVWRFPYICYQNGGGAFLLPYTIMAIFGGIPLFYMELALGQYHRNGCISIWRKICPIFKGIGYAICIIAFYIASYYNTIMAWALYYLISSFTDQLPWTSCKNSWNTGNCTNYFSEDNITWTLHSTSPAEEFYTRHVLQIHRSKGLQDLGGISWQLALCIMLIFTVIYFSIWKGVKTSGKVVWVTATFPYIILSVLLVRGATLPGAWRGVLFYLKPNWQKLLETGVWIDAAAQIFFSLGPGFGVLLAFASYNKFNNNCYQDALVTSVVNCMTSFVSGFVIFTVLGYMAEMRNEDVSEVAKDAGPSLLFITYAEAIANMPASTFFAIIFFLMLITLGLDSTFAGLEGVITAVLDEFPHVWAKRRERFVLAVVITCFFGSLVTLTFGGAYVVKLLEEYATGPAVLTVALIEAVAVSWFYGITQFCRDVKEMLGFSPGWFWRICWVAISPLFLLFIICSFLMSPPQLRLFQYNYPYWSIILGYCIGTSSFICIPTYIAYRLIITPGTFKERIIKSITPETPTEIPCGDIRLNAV

**Q.** What does the source list for CCN(CC)c1ccc(-c2cc[n+]3c(-c4ccccc4)c(N4CCCC4)n(CCCCCCC(=O)NCc4ccc5c(c4)CO[C@@]5(CCCN(C)C)c4ccc(F)cc4)c3c2)cc1 [PYR-C6-CIT, PyrAte-C6-(S)-citalopram]?
**A.** Ki (SERT [1]): 110 ± 70 nM; ratio of 5-HT-mediated currents before and after application (current reduced to) (SERT [2]; 1 μM compound, 10 µM 5HT, N = 6): 47%; inhibition at 1 µM (SERT [2]; HEK293, read-out: inhibition of 5-HT-mediated currents, 1 μM concentration): ~50%
